The data set deals with Human Heme Oxygenase-1 (HMOX-1). The data set is described as follows: ELISA assay to measure human heme oxygenase-1 (HMOX-1) in HepG2 lysate. The class given is cell-based. The settings on record: fold change of human HMOX1 protein levels relative to DMSO control, HepG2. On the procedure: Example 143. ELISA Assay to Measure Human Heme Oxygenase-1 (HMOX-1) in HepG2 lysate
Reagents and Technical Notes:
ELISA capture antibody, standard HO-1, detection antibody and streptavidin HRP were supplied in the DuoSet IC Human total HO-1 ELISA from R&D systems (DYC3776-2). The substrate cocktail was KPL LumiGLO reserve Chemiluminescent Substrate (54-71-00). PBS was Corning Cellgro Cell Culture (21-040-CV). 10×PBS+0.05% tween20 (PBST) was from KPL.
All incubations of the plate were at room temperature (20° C.) in a closed drawer.
The ELISA plate was processed manually. All loadings were with a multichannel pipet. Plates were emptied by shaking into the sink and tapping onto paper towels to remove any remaining reagent. Plate washing was accomplished by loading all wells with PBS+0.05% tween20 (PBST) using a squirt bottle, shaking the PBST out and tapping the plate onto paper towels.
Preparation of the ELISA Plate: • 1. anti-HO-1 capture antibody was 1440 μg/ml after reconstitution in PBS. This antibody was diluted to 8 μg/ml in PBS and 50 μl per well was added to a 384 well greiner “lumitrac 200” plate. Incubated overnight. • 2. The plate was emptied and 100 μl PBS+1% BSA added to all wells. Incubated 90 minutes at room temperature.
Preparation of HepG2 Lysate: • 1. Cells were cultured in a 96-well tissue culture plate washed with PBS and then the plate frozen at −70° C. overnight. Plates were allowed to warm to ice temperature in an ice bucket. 20 μl of PBS, 0.5% Triton X100, 1 mM EDTA with 1×HALT™ protease inhibitors was added to each well and the plates incubated on ice for 1 hour. • 2. The lysates were frozen at −20° C. overnight.
Measurement of HMOX1 (“HO-1”) • 1. In a polypropylene 384 well plate, human HO-1(after reconstitution in PBS+0.5% Triton+1 mM EDTA) was serially diluted from 20 ng/ml 2-fold in PBS+0.5% triton-X100, 1 mM EDTA to make a 12-point standard curve including a zero point. • 2. In a polypropylene 96 well plate, HepG2 lysate was diluted 1 to 20 in Diluent #4 from DUOSET kit in which the assay standard is also diluted. • 3. The PBS+1% BSA was emptied from the ELISA plate and 30 μl of all samples and standards were added (duplicates recommended). The plate was incubated 90 minutes. • 4. Emptied plate and washed 4 times with PBST. • 5. Diluted HO-1 detection antibody to 200 ng/ml in PBS+1% BSA and added 30 μl to all wells. Incubated 90 minutes. • 6. Emptied plate and washed 4 times with PBST. • 7. Added 30 μl streptavidin HRP at 1/200 in PBS+1% BSA (stock streptavidin concentration not specified) to all wells. Incubated 30 minutes. • 8. Emptied plate and washed 4 times with PBST. • 9. Diluted Lumiglo reserve reagent two parts buffer to one part lumiglo substrate. Added 30 μl to all wells. Incubated 5 minutes. • 10. Measured chemiluminescence on spectramax M5 using 150 ms integration.
Table 1 below lists EC50 and fold changes of human HMOX1 protein levels relative to DMSO control upon treatment with representative compounds.
In general terms: An ELISA detects its analyte on a solid surface through an enzyme-linked reagent.

Here are results for 23 compounds from patent US20240051952A1, “HMOX1 INDUCERS” (Mitobridge Inc., priority 2019, published 2024).

With `Cn1c(Nc2nc3cc(C(=O)NCCOCCO)ccc3o2)nc2ccccc21` [Example 118, N-(2-(2-hydroxyethoxy)ethyl)-2-((1-methyl-1H-benzo[d]imidazol-2-yl)amino)benzo[d]oxazole-5-carboxamide], the “Maximum Fold induction” value is reported as 24.

On to `COCCNC(=O)c1ccc2c(c1)nc(Nc1nc3cc(F)ccc3o1)n2C` [Example 67, 2-((5-fluorobenzo[d]oxazol-2-yl)amino)-N-(2-methoxyethyl)-1-methyl-1H-benzo[d]imidazole-5-carboxamide], for which the “Maximum Fold induction” value is listed as 18-56.

For the compound `Cn1c(Nc2nc3ccccc3o2)nc2cc(C(N)C(F)(F)F)ccc21` (centres unmarked) [Example 141, N-(5-(1-amino-2,2,2-trifluoroethyl)-1-methyl-1H-benzo[d]imidazol-2-yl)benzo[d]oxazol-2-amine], the “Maximum Fold induction” value is recorded as 22.

With `Cn1c(Nc2nc3ccc(OC(F)(F)F)cc3o2)nc2cc(C(=O)NC(CO)CO)ccc21` [Example 48, N-(1,3-dihydroxypropan-2-yl)-1-methyl-2-((6-(trifluoromethoxy)benzo[d]oxazol-2-yl)amino)-1H-benzo[d]imidazole-5-carboxamide], the “Maximum Fold induction” value was 13-20.

`COCCONC(=O)c1ccc2c(c1)nc(Nc1nc3ccc(C(C)=O)cc3o1)n2C` [Example 132, 2-((6-acetylbenzo[d]oxazol-2-yl)amino)-N-(2-methoxyethoxy)-1-methyl-1H-benzo[d]imidazole-5-carboxamide]: the “Maximum Fold induction” value came to 39.

Consider `COCCNC(=O)c1ccc2c(c1)nc(Nc1nc3ccc(OC(F)(F)F)cc3o1)n2C` [Example 45, N-(2-methoxyethyl)-1-methyl-2-((6-(trifluoromethoxy)benzo[d]oxazol-2-yl)amino)-1H-benzo[d]imidazole-5-carboxamide], for which the “Maximum Fold induction” value is on record as 10-28.

Regarding `Cn1c(Nc2nc3ccc(OCCO)cc3o2)nc2cc(C(=O)NCCNC3=NCCN3)ccc21` [Example 106, N-(2-((4,5-dihydro-1H-imidazol-2-yl)amino)ethyl)-2-((6-(2-hydroxyethoxy)benzo[d]oxazol-2-yl)amino)-1-methyl-1H-benzo[d]imidazole-5-carboxamide], the “Maximum Fold induction” value is reported as 6.

For `Cn1c(Nc2nc3ccc(OCC(F)(F)F)cc3o2)nc2cc(C(=O)NCCO)ccc21` [Example 100, N-(2-hydroxyethyl)-1-methyl-2-((6-(2,2,2-trifluoroethoxy)benzo[d]oxazol-2-yl)amino)-1H-benzo[d]imidazole-5-carboxamide], the “Maximum Fold induction” value is recorded as 24-35.

Regarding `COCCNC(=O)c1ccc2c(c1)nc(Nc1nc3cc(OC(F)(F)F)ccc3[nH]1)n2CCOC` [Example 76, N,1-bis(2-methoxyethyl)-2-((5-(trifluoromethoxy)-1H-benzo[d]imidazol-2-yl)amino)-1H-benzo[d]imidazole-5-carboxamide], the “Maximum Fold induction” value is on record as 18-20.

For the compound `COCCOc1ccc2nc(Nc3nc4cc(C(=O)NCCO)ccc4n3C)oc2c1` [Example 57, N-(2-hydroxyethyl)-2-((6-(2-methoxyethoxy)benzo[d]oxazol-2-yl)amino)-1-methyl-1H-benzo[d]imidazole-5-carboxamide], the “Maximum Fold induction” value was 34-40.

Take `CN(C)CCn1c(Nc2nc3ccc(OC(F)(F)F)cc3o2)nc2cc(C(=O)O)ccc21` [Example 74, 1-(2-(dimethylamino)ethyl)-2-((6-(trifluoromethoxy)benzo[d]oxazol-2-yl)amino)-1H-benzo[d]imidazole-5-carboxylic acid]: the “Maximum Fold induction” value is 17-28.

In the case of `Cn1c(Nc2nc3ccc(OC(F)F)cc3o2)nc2cc(C(=O)NCCO)ccc21` [Example 64, 2-((6-(difluoromethoxy)benzo[d]oxazol-2-yl)amino)-N-(2-hydroxyethyl)-1-methyl-1H-benzo[d]imidazole-5-carboxamide], the “Maximum Fold induction” value is reported as 11-18.

As to `Cn1c(Nc2nc3ccc(OC(F)(F)F)cc3o2)nc2cc(C(=O)NC3COC3)ccc21` [Example 51, 1-methyl-N-(oxetan-3-yl)-2-((6-(trifluoromethoxy)benzo[d]oxazol-2-yl)amino)-1H-benzo[d]imidazole-5-carboxamide], the “Maximum Fold induction” value is listed as 30-57.

Take `COCCNC(=O)c1ccc2c(c1)nc(Nc1nc3ccc(OC(F)(F)F)cc3s1)n2C1CCN(C)CC1` [Example 3e, N-(2-methoxyethyl)-1-(1-methylpiperidin-4-yl)-2-((6-(trifluoromethoxy)benzo[d]thiazol-2-yl)amino)-1H-benzo[d]imidazole-5-carboxamide]: the “Maximum Fold induction” value was 6-46.

`COc1ccc2nc(Nc3nc4cc(C(=O)NCCO)ccc4n3C)oc2c1` [Example 92, N-(2-hydroxyethyl)-2-((6-methoxybenzo[d]oxazol-2-yl)amino)-1-methyl-1H-benzo[d]imidazole-5-carboxamide]: the “Maximum Fold induction” value is 12-20.

As to `Cn1c(Nc2nc3ccc(OCCO)cc3o2)nc2cc(C(=O)NCCOCCO)ccc21` [Example 104, 2-((6-(2-hydroxyethoxy)benzo[d]oxazol-2-yl)amino)-N-(2-(2-hydroxyethoxy)ethyl)-1-methyl-1H-benzo[d]imidazole-5-carboxamide], the “Maximum Fold induction” value is 23.

With `CC(C)C(N)C(=O)OCCOCCNC(=O)c1ccc2c(c1)nc(Nc1nc3ccccc3o1)n2C.Cl` (racemic) [Example 30, 2-(2-(2-(benzo[d]oxazol-2-ylamino)-1-methyl-1H-benzo[d]imidazole-5-carboxamido)ethoxy)ethyl DL-valinate hydrochloride], the “Maximum Fold induction” value is 25-53.

Consider `Cn1c(Nc2nc3nccnc3s2)nc2cc(C(=O)NCCOCCO)ccc21` [Example 114, N-(2-(2-hydroxyethoxy)ethyl)-1-methyl-2-(thiazolo[4,5-b]pyrazin-2-ylamino)-1H-benzo[d]imidazole-5-carboxamide], for which the “Maximum Fold induction” value was found to be 33.

Consider `Cn1c(Nc2nc3cc(F)c(C(F)(F)F)cc3o2)nc2cc(C(=O)NCCO)ccc21` [Example 108, 2-((5-fluoro-6-(trifluoromethyl)benzo[d]oxazol-2-yl)amino)-N-(2-hydroxyethyl)-1-methyl-1H-benzo[d]imidazole-5-carboxamide], for which the “Maximum Fold induction” value stood at 29.

Turning to `COCCNC(=O)c1ccc2c(c1)nc(Nc1nc3ccc(OC(F)(F)F)cc3o1)n2CCS(C)(=O)=O` [Example 90, N-(2-methoxyethyl)-1-(2-(methylsulfonyl)ethyl)-2-((6-(trifluoromethoxy)benzo[d]oxazol-2-yl)amino)-1H-benzo[d]imidazole-5-carboxamide], the “Maximum Fold induction” value was found to be 22.

For the compound `Cn1c(Nc2nc3cccc(C(F)(F)F)c3o2)nc2cc(C(=O)NCCOCCO)ccc21` [Example 117, N-(2-(2-hydroxyethoxy)ethyl)-1-methyl-2-((7-(trifluoromethyl)benzo[d]oxazol-2-yl)amino)-1H-benzo[d]imidazole-5-carboxamide], the “Maximum Fold induction” value stood at 38.

Take `COCCONC(=O)c1ccc2c(c1)nc(Nc1nc3ccc(OC(F)(F)F)cc3o1)n2C` [Example 127, N-(2-methoxyethoxy)-1-methyl-2-((6-(trifluoromethoxy)benzo[d]oxazol-2-yl)amino)-1H-benzo[d]imidazole-5-carboxamide]: the “Maximum Fold induction” value is 27-36.

Consider `Cn1c(Nc2nc3ccccc3o2)nc2cc(C(=O)NCCN3CCCC3)ccc21` [Example 28, 2-(benzo[d]oxazol-2-ylamino)-1-methyl-N-(2-(pyrrolidin-1-yl)ethyl)-1H-benzo[d]imidazole-5-carboxamide], for which the “Maximum Fold induction” value is recorded as 41.
